Source: publication PMC10322960 (European Journal of Drug Metabolism and Pharmacokinetics, 2023)

Legend:
OAT3 = target: T1, OAT3 (Homo sapiens, UniProt Q8TCC7); experiment: OAT3 uptake inhibition assay; format: in vitro ADME; conditions: 0.63–40 μM
T1 sequence (Q8TCC7 1-542): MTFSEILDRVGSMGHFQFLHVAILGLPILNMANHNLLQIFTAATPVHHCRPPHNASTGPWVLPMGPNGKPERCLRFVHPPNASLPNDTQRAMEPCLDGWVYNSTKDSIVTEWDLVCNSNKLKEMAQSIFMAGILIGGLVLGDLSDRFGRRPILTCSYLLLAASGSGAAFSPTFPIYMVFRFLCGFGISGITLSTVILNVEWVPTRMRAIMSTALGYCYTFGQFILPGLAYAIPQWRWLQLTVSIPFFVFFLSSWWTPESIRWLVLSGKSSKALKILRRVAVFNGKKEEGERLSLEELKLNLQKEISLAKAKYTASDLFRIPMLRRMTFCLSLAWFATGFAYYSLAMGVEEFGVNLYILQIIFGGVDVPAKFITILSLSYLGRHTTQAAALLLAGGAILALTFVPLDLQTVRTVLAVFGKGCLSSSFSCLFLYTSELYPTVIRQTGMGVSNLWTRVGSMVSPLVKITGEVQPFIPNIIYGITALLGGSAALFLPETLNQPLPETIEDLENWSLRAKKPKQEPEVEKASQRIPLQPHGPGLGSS

[1] = tested on: CYP1A2, CYP2A6, CYP2B6, CYP2C8, CYP2C9, CYP2C19, CYP2D6, CYP2E1, and CYP4A11; experiment: Recombinant CYP incubation; format: in vitro ADME, human; conditions: 3 µm ocedurenone, NADPH, 60 min
MATE2-K = MATE2-K (Homo sapiens, UniProt Q86VL8); experiment: MATE2-K uptake substrate assay; format: in vitro ADME
MATE2-K, sequence (Q86VL8 1-566 isoform Q86VL8-3): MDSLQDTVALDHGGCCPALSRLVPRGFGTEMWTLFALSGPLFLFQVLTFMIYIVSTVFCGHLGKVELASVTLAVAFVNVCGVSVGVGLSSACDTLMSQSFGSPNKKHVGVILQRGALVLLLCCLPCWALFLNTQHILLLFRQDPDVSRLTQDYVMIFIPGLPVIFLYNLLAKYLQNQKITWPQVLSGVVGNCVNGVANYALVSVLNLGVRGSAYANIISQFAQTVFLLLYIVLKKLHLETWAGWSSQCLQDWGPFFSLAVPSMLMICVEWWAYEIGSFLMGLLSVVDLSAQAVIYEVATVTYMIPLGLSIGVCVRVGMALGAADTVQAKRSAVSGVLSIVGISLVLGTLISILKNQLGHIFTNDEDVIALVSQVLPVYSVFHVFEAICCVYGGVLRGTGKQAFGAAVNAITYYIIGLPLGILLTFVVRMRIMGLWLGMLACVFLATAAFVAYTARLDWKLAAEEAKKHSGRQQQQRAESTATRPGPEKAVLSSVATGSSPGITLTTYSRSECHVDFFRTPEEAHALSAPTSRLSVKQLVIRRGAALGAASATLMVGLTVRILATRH

OATP1B3 = target: T2, OATP1B3 (Homo sapiens, UniProt Q9NPD5); experiment: OATP1B3 uptake inhibition assay; format: in vitro ADME; conditions: at 40 µM
T2 sequence (Q9NPD5 1-702): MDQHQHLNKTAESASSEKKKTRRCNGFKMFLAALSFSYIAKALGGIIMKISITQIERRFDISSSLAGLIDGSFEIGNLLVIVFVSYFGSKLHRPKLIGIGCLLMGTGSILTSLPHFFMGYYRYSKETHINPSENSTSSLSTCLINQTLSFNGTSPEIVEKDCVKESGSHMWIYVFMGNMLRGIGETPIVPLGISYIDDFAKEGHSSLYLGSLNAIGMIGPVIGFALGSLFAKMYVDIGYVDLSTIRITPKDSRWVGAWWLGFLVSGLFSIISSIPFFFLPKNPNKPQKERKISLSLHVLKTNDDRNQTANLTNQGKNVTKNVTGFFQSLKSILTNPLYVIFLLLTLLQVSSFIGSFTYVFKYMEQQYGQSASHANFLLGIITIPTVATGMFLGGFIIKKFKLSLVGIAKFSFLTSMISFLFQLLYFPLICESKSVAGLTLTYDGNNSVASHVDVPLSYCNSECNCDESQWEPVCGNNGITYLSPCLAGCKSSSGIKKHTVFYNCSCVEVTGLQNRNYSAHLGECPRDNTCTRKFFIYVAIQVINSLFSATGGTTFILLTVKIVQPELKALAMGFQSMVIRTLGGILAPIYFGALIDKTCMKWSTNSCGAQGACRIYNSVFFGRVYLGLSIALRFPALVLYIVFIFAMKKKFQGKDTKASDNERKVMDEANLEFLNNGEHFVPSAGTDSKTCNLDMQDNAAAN

BCRP = target: T3, BCRP (Homo sapiens, UniProt Q9UNQ0); experiment: BCRP monolayer substrate assay; format: in vitro ADME
T3 sequence (Q9UNQ0 1-655): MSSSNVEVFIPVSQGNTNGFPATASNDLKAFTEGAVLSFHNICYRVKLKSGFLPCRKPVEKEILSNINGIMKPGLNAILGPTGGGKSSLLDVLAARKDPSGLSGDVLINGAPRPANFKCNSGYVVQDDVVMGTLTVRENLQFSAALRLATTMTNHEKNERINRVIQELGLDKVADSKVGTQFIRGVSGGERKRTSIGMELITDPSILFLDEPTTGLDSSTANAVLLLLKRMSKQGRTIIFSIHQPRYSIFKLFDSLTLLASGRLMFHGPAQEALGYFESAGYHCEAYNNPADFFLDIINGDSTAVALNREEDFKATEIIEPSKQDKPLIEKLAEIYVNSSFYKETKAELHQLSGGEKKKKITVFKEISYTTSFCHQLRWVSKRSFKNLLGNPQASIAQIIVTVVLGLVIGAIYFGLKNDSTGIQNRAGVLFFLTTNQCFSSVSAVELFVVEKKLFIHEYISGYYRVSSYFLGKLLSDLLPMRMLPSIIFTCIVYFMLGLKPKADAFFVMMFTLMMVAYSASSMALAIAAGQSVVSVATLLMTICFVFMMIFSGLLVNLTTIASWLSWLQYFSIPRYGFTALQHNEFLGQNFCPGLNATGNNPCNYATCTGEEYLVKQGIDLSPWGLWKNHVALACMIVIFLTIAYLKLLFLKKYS

OCT1 = OCT1 (Homo sapiens, UniProt O15245); experiment: OCT1 uptake substrate assay; format: in vitro ADME
OCT1, sequence (O15245 whole entry): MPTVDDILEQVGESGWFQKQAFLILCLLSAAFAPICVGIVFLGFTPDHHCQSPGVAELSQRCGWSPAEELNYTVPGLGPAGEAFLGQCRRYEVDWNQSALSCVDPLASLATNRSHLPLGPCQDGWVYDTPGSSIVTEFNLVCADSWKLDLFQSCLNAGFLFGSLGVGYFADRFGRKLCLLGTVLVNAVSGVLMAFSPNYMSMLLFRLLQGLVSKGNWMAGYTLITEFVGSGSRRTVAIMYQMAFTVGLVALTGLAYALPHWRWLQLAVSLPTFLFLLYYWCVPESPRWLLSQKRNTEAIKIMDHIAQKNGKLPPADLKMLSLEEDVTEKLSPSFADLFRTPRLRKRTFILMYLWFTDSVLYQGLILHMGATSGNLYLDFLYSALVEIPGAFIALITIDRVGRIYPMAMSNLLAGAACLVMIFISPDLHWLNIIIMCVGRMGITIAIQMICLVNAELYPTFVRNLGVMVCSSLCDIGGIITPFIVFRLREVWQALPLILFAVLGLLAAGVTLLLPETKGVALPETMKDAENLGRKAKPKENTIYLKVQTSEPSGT

[2] = Phase 1 clinical drug–drug interaction study, plasma pharmacokinetics; format: in vivo, human
CYP2C8 = target: T4, CYP2C8 (Homo sapiens, UniProt P10632); experiment: In vitro P450 inhibition, recombinant CYP2C8; format: in vitro ADME
T4 sequence (P10632 1-490): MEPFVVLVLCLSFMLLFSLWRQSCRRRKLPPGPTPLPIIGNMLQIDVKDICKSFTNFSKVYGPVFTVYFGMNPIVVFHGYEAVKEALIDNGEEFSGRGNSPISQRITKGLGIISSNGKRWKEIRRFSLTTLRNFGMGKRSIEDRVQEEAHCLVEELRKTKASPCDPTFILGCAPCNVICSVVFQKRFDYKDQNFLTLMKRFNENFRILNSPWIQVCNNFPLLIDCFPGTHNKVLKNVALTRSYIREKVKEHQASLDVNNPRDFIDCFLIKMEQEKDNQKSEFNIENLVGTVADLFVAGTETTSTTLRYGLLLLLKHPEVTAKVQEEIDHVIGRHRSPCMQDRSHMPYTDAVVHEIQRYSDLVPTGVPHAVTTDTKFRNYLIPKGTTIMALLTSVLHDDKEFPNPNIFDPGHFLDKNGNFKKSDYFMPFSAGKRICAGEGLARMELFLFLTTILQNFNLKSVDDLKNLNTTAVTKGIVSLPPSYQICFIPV

[3] = transporter-expressing vs control cells, 0.04–40 µm
[4] = ocedurenone + itraconazole (test) vs ocedurenone alone (reference), Cohort 1
[5] = ocedurenone + rifampin (test) vs ocedurenone alone (reference), Cohort 2

N#Cc1ccc(N2N=C3c4ccc(C(=O)N5CCC(O)CC5)nc4CC[C@@H]3[C@@H]2C2CCCC2)cc1Cl [Ocedurenone, ocedurenone]
interaction with human OAT3 transporter (inhibition) (OAT3): No interaction | metabolism in incubations with other recombinant CYP isoenzymes [1]: minor metabolism | Substrate, MATE2-K UPT (MATE2-K): not likely to be a substrate | Maximum fold accumulation, MATE2-K UPT (MATE2-K; [3]): < 2 | maximum inhibition of OATP1B3-mediated probe substrate accumulation (OATP1B3): 58% | Substrate, BCRP ML (BCRP): likely a substrate | Substrate, OCT1 UPT (OCT1): not likely to be a substrate | Maximum fold accumulation, OCT1 UPT (OCT1; [3]): 1.1 | geometric least squares mean ratio (test:reference) and 90% CI, AUC0-inf [2, 4]: 199.5 (182.3, 218.3) | geometric least squares mean ratio (test:reference) and 90% CI, AUClast [2, 4]: 161.0 (152.3, 170.3) | geometric least squares mean ratio (test:reference) and 90% CI, Cmax [2, 4]: 107.4 (103.2, 111.8) | geometric least squares mean ratio (test:reference) and 90% CI, AUC0-inf [2, 5]: 17.2 (16.2, 18.2) | geometric least squares mean ratio (test:reference) and 90% CI, AUClast [2, 5]: 17.5 (16.6, 18.5) | geometric least squares mean ratio (test:reference) and 90% CI, Cmax [2, 5]: 73.4 (69.5, 77.5) | effect of rifampin on ocedurenone pharmacokinetics (interaction class) ([2]; strong CYP3A4 inducer rifampin): strong (> 5-fold) | effect of itraconazole on ocedurenone exposure (interaction class) ([2]; strong CYP3A inhibitor itraconazole): weak (1.25- to 2-fold) | percentage remaining activity of CYP2C8 (CYP2C8; ocedurenone at 200 μM): 26.4% | IC50 (CYP2C8; read-out: IC50 CYP2C8, recombinant CYP, results section): > 10 µM | inhibition category CYP2C8 (CYP2C8; recombinant enzyme): weak inhibition (IC50 >10 μM categorized as weak inhibition)
